What follows are molecules tested against HIV-1 PR (Human immunodeficiency virus type 1 group M subtype B, UniProt P04585) (assay: HIV-protease inhibitory activity assay (FRET peptide substrate)). Conditions: Test Example 1.
Type: biochemical
Outline: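 Fluorescence recovery at ex 485/em 535 nm reports cleavage of a quenched FRET peptide (2 μmol/L final) by 0.83 ng enzyme over 60 minutes at room temperature. Buffer was NaAc pH 4.8 with NaCl, EDTA, DTT and Tween 20. IC50 values came from four-parameter logistic regression of % inhibition.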

Compared with COc1ccc(S(=O)(=O)N(CC(C)C)CC(O)C(Cc2ccc(NCC3=C(c4sc5c(c4C(=O)O)CC(C)(C)CC5)CCC(F)(F)C3)cc2)NC(=O)OC2COC3(C)OCCC23)cc1 (centres unmarked) [Compound I-705], COc1ccc(S(=O)(=O)N(CC(C)C)CC(O)C(Cc2ccc(NCC3=C(c4sc5c(c4C(=O)O)CC(C)(C)CC5)COC3)cc2)NC(=O)OC2COC3(C)OCCC23)cc1 (centres unmarked) [Compound I-527] is 2.4-fold lower in IC50: 4.87 nM for the first, 1.99 nM for the second. The second is the more potent here.

COc1ccc(S(=O)(=O)N(CC(C)C)CC(O)C(Cc2ccc(NCc3cccc(C)c3C(=O)Nc3sc4c(c3C(=O)O)CC(C)(C)CC4)cc2)NC(=O)OC2COC3(C)OCCC23)cc1 (centres unmarked) [Compound I-718] and COc1ccc(S(=O)(=O)N(CC(C)C)CC(O)C(Cc2ccc(NCc3cc(C)ccc3C(=O)Nc3sc4c(c3C(=O)O)CC(C)(C)CC4)cc2)NC(=O)OC2COC3(C)OCCC23)cc1 (centres unmarked) [Compound I-717] are within 1.5-fold of each other in IC50: 3.97 nM for the first, 2.77 nM for the second.

Compared with COc1ccc(S(=O)(=O)N(CC(C)C)CC(O)C(Cc2ccc(N(C)CC3=C(c4sc5c(c4C(=O)O)CC(C)(C)CC5)COC3)cc2)NC(=O)OC2COC3(C)OCCC23)cc1 (centres unmarked) [Compound I-569], COc1ccc(S(=O)(=O)N(CC(C)C)CC(O)C(Cc2ccc(N(C)Cc3cccc(-c4sc5c(c4C(=O)O)CC(C)(C)CC5)n3)cc2)NC(=O)OC2COC3(C)OCCC23)cc1 (centres unmarked) [Compound I-494] is 1.5-fold lower in IC50: 2.22 nM for the first, 1.46 nM for the second. The second is the more potent here.

COc1ccc(S(=O)(=O)N(CC(C)C)C[C@@H](O)[C@H](Cc2ccc(OCc3ccccc3-c3sc4c(c3C(=O)O)CC(C)(C)CC4)cc2)NC(=O)O[C@@H]2C[C@@H]3[C@@H](OC(C)=O)CO[C@@H]3C2)cc1 [Compound I-28] and COc1ccc(S(=O)(=O)N(CC(C)C)CC(O)C(Cc2ccc(OCc3ccccc3-c3sc4c(c3C(=O)NS(=O)(=O)C3CC3)CC(C)(C)CC4)cc2)NC(=O)OC2COC3(C)OCCC23)cc1 (centres unmarked) [Compound I-58] are within 1.5-fold of each other in IC50: 1.63 nM for the first, 1.11 nM for the second.

COc1ccc(S(=O)(=O)N(CC(C)C)CC(O)C(Cc2ccc(N3Cc4nc5ccccc5cc4C3=O)cc2)NC(=O)OC2COC3(C)OCCC23)cc1 (centres unmarked) [Compound I-771] and COc1ccc(S(=O)(=O)N(CC(C)C)CC(O)C(Cc2ccc(NCc3nc4ccccc4cc3-c3sc4c(c3C(=O)O)CC(C)(C)CC4)cc2)NC(=O)OC2COC3(C)OCCC23)cc1 (centres unmarked) [Compound I-568] are within 1.5-fold of each other in IC50: 2 nM for the first, 1.54 nM for the second.

CC(C)CN(CC(O)C(Cc1ccc(NCc2cc(C(F)(F)F)ccc2-c2sc3c(c2C(=O)O)CC(C)(C)CC3)cc1)NC(=O)OC1COC2OCCC12)S(=O)(=O)c1ccc2ncsc2c1 (centres unmarked) [Compound I-871] and CC(C)CN(CC(O)C(Cc1ccc(NCc2cc(C(F)(F)F)ccc2-c2sc3c(c2C(=O)O)CC(C)(C)CC3)cc1)NC(=O)OC1COC2OCCC12)S(=O)(=O)c1ccc2c(c1)OCO2 (centres unmarked) [Compound I-874] are within 1.5-fold of each other in IC50: 4.93 nM for the first, 5.12 nM for the second.

Going from COc1ccc(S(=O)(=O)N(CC(C)C)CC(O)C(Cc2ccc(N3CCc4cccc(-c5sc6c(c5C(=O)O)CC(C)(C)CC6)c4C3)cc2)NC(=O)OC2COC3(C)OCCC23)cc1 (centres unmarked) [Compound I-191] to COc1ccc(S(=O)(=O)N(CC(C)C)CC(O)C(Cc2ccc(N3CCC(c4ccc(-c5sc6c(c5C(=O)O)CC(C)(C)CC6)cc4)C3)cc2)NC(=O)OC2COC3(C)OCCC23)cc1 (centres unmarked) [Compound I-576], the IC50 rises from 2.22 nM to 4.95 nM (2.2-fold).

Compared with COc1ccc(S(=O)(=O)N(CC(C)C)CC(O)C(Cc2ccc(OCc3ccccc3-c3c(OCc4ccccc4)noc3C(=O)O)cc2)NC(=O)OC2COC3(C)OCCC23)cc1 (centres unmarked) [Compound I-344], COc1ccc(S(=O)(=O)N(CC(C)C)CC(O)C(Cc2ccc(OCc3ccccc3-c3ccc4c(c3)C(=O)C(c3ccccc3C)C4=O)cc2)NC(=O)OC2COC3(C)OCCC23)cc1 (centres unmarked) [Compound I-176] is 2.8-fold lower in IC50: 2.83 nM for the first, 1.01 nM for the second. The second is the more potent here.

Compared with COc1ccc(S(=O)(=O)N(CC(C)C)CC(O)C(Cc2ccc(N(C)CC3CC(C)(C)CCC3c3sc4c(c3C(=O)O)CC(C)(C)CC4)cc2)NC(=O)OC2COC3(C)OCCC23)cc1 (centres unmarked) [Compound I-770], COc1ccc(S(=O)(=O)N(CC(C)C)CC(O)C(Cc2ccc(NCC3CC(C)(C)CC3c3sc4c(c3C(=O)O)CC(C)(C)CC4)cc2)NC(=O)OC2COC3(C)OCCC23)cc1 (centres unmarked) [Compound I-735] is 3.6-fold lower in IC50: 5.56 nM for the first, 1.56 nM for the second. The second is the more potent here.

Compared with COc1ccc(S(=O)(=O)N(CC(C)C)CC(O)C(Cc2ccc(N(C)CC3CCCCC3C(=O)Nc3sc4c(c3C(=O)O)CC(C)(C)CC4)cc2)NC(=O)OC2COC3(C)OCCC23)cc1 (centres unmarked) [Compound I-629], COc1ccc(S(=O)(=O)N(CC(C)C)CC(O)C(Cc2ccc(N(C)CC3CC(C)(C)CCC3c3sc4c(c3C(=O)O)CC(C)(C)CC4)cc2)NC(=O)OC2COC3(C)OCCC23)cc1 (centres unmarked) [Compound I-769] is 2.5-fold higher in IC50: 2.35 nM for the first, 5.98 nM for the second.

Compared with CCCCCCCCCN(Cc1ccccc1-c1sc2c(c1C(=O)O)CC(C)(C)CC2)c1ccc(CC(NC(=O)OC2COC3(C)OCCC23)C(O)CN(CC(C)C)S(=O)(=O)c2ccc(OC)cc2)cc1 (centres unmarked) [Compound I-458], COc1ccc(S(=O)(=O)N(CC(C)C)CC(O)C(Cc2ccc(N(C)C3CCN(c4ccccc4-c4sc5c(c4C(=O)O)CC(C)(C)CC5)C3)cc2)NC(=O)OC2COC3(C)OCCC23)cc1 (centres unmarked) [Compound I-239] is 19-fold lower in IC50: 51 nM for the first, 2.74 nM for the second. The second is the more potent here.

First: COc1ccc(S(=O)(=O)N(CC(C)C)CC(O)C(Cc2ccc(N3CCC(C(=O)N(C)c4sc5c(c4C(=O)O)CC(C)(C)CC5)C3)cc2)NC(=O)OC2COC3(C)OCCC23)cc1 (centres unmarked) [Compound I-646]
Second: COc1ccc(S(=O)(=O)N(CC(C)C)CC(O)C(Cc2ccc(N3CCC(Oc4ccc(-c5sc6c(c5C(=O)O)CC(C)(C)CC6)cc4)C3)cc2)NC(=O)OC2COC3(C)OCCC23)cc1 (centres unmarked) [Compound I-350]
The IC50 of the first is 1.8-fold lower: 2.92 nM for the first, 5.32 nM for the second.

COc1ccc(S(=O)(=O)N(CC(C)C)CC(O)C(Cc2ccc(N(C)CCn3nc4c(c3C(=O)O)CC(C)(C)CC4)cc2)NC(=O)OC2COC3(C)OCCC23)cc1 (centres unmarked) [Compound I-517] and COc1ccc(S(=O)(=O)N(CC(C)C)CC(O)C(Cc2ccc(NCCn3nc4c(c3C(=O)O)CC(C)(C)CC4)cc2)NC(=O)OC2COC3(C)OCCC23)cc1 (centres unmarked) [Compound I-516] are within 1.5-fold of each other in IC50: 2.56 nM for the first, 2.29 nM for the second.

First: COc1ccc(S(=O)(=O)N(CC(C)C)CC(O)C(Cc2ccc(N(C)c3ccc(-c4sc5c(c4C(=O)O)CC(C)(C)CC5)cc3)cc2)NC(=O)OC2COC3(C)OCCC23)cc1 (centres unmarked) [Compound I-469]
Second: COc1ccc(S(=O)(=O)N(CC(C)C)CC(O)C(Cc2ccc(NCc3ccc(-c4sc5c(c4C(=O)O)CC(C)(C)CC5)cn3)cc2)NC(=O)OC2COC3(C)OCCC23)cc1 (centres unmarked) [Compound I-290]
The IC50 of the first is 2.5-fold higher: 5.16 nM for the first, 2.08 nM for the second.

COc1ccc(S(=O)(=O)N(CC(C)C)CC(O)C(Cc2ccc(N3CC4CN(c5ccc(C#N)cc5-c5sc6c(c5C(=O)O)CC(C)(C)CC6)CC4C3)cc2)NC(=O)OC2COC3(C)OCCC23)cc1 (centres unmarked) [Compound I-233] and COc1ccc(S(=O)(=O)N(CC(C)C)CC(O)C(Cc2ccc(OCC3CCCN3c3ccc(C#N)cc3-c3sc4c(c3C(=O)O)CC(C)(C)CC4)cc2)NC(=O)OC2COC3(C)OCCC23)cc1 (centres unmarked) [Compound I-326] are within 1.5-fold of each other in IC50: 6.22 nM for the first, 9.19 nM for the second.

First: COc1ccc(S(=O)(=O)N(CC2CCC2)CC(O)C(Cc2ccc(NCc3ccccc3C(=O)Nc3sc4c(c3C(=O)O)CC(C)(C)CC4)cc2)NC(=O)OC2COC3(C)OCCC23O)cc1 (centres unmarked) [Compound I-893]
Second: COc1ccc(S(=O)(=O)N(CC(C)C)CC(O)C(Cc2ccc(NCc3ccc(C(=O)Nc4sc5c(c4C(=O)O)CC(C)(C)CC5)o3)cc2)NC(=O)OC2COC3(C)OCCC23)cc1 (centres unmarked) [Compound I-438]
The IC50 of the first is 2.3-fold higher: 5.83 nM for the first, 2.55 nM for the second.

COc1ccc(S(=O)(=O)N(CC(C)C)CC(O)C(Cc2ccc(NCC3CCCC3c3sc4c(c3C(=O)O)CC(C)(C)CC4)cc2)NC(=O)OC2COC3(C)OCCC23)cc1 (centres unmarked) [Compound I-670] and COc1ccc(S(=O)(=O)N(CC(C)C)CC(O)C(Cc2ccc(NCc3ccc(C(=O)O)cc3-c3sc4c(c3C(=O)O)CC(C)(C)CC4)cc2)NC(=O)OC2COC3(C)OCCC23)cc1 (centres unmarked) [Compound I-413] are within 1.5-fold of each other in IC50: 2.67 nM for the first, 1.84 nM for the second.

CC(C)CN(CC(O)C(Cc1ccc(CCc2sc3c(c2C(=O)O)CC(C)(C)CC3)cc1)NC(=O)OC1COC2OCCC12)S(=O)(=O)c1ccc2ncsc2c1 (centres unmarked) [Compound I-831] and COc1ccc(S(=O)(=O)N(CC(C)C)CC(O)C(Cc2ccc(N3CCC(C(=O)Nc4sc5c(c4C(=O)O)CC(C)(C)CC5)C3)cc2)NC(=O)OC2COC3OCCC23)cc1 (centres unmarked) [Compound I-865] are within 1.5-fold of each other in IC50: 1.49 nM for the first, 2.21 nM for the second.

Compared with COc1ccc(S(=O)(=O)N(CC(C)C)CC(O)C(Cc2ccc(OC(C)(C)C(=O)NS(=O)(=O)c3cccc(-c4ccc(F)cc4F)c3)cc2)NC(=O)OC2COC3(C)OCCC23)cc1 (centres unmarked) [Compound I-57], COc1ccc(S(=O)(=O)N(CC(C)C)C[C@@H](O)[C@H](Cc2ccc(OCc3ccc(-c4ccc(F)cc4F)cc3C(=O)NC(=O)NC(C)(C)C)cc2)NC(=O)O[C@H]2CO[C@@]3(C)OCC[C@@H]23)cc1 [Compound I-25] is 1.9-fold higher in IC50: 1.07 nM for the first, 2.07 nM for the second.

Compared with COc1ccc(S(=O)(=O)N(CC(C)C)CC(O)C(Cc2ccc(OCc3ccccc3-c3sc(N4CCC(C)(C)CC4)nc3C(=O)O)cc2)NC(=O)OC2COC3OCCC23)cc1 (centres unmarked) [Compound I-845], COc1ccc(S(=O)(=O)N(CC(C)C)CC(O)C(Cc2ccc(N(C)CCOc3ccccc3-c3sc4c(c3C(=O)O)CC(C)(C)CC4)cc2)NC(=O)OC2COC3OCCC23)cc1 (centres unmarked) [Compound I-864] is 2.6-fold higher in IC50: 0.85 nM for the first, 2.25 nM for the second.

Compared with COc1ccc(S(=O)(=O)N(CC(C)C)CC(O)C(Cc2ccc(NCc3ccc(Oc4ccc(-c5sc6c(c5C(=O)O)CC(C)(C)CC6)c(C)c4)cc3)cc2)NC(=O)OC2COC3(C)OCCC23)cc1 (centres unmarked) [Compound I-571], COc1ccc(S(=O)(=O)N(CC(C)C)CC(O)C(Cc2ccc(NCc3ncn4cc(-c5sc6c(c5C(=O)O)CC(C)(C)CC6)ccc34)cc2)NC(=O)OC2COC3(C)OCCC23)cc1 (centres unmarked) [Compound I-323] is 9.2-fold lower in IC50: 22.2 nM for the first, 2.41 nM for the second.

Compared with COc1ccc(S(=O)(=O)N(CC(C)C)CC(O)C(Cc2ccc(N(C)Cc3ccccc3C(=O)N(C)c3sc4c(c3C(=O)O)CC(C)(C)CC4)cc2)NC(=O)OC2COC3(C)OCCC23)cc1 (centres unmarked) [Compound I-590], CC(C)CN(CC(O)C(Cc1ccc(OCc2ccccc2-c2sc3c(c2C(=O)O)CC(C)(C)CC3)cc1)NC(=O)OC1COC2(C)OCCC12)S(=O)(=O)c1ccc2nc(NC3CCN(C4CCCC4)CC3)sc2c1 (centres unmarked) [Compound I-792] is 8.9-fold higher in IC50: 2.82 nM for the first, 25 nM for the second.
